Results: patent US6924298B2, “2-(3,5-Disubstituted-4-pyridyl)-4-(thienyl, thiazolyl or arylphenyl)-1,3-oxazoline compounds” (Dow AgroSciences LLC, priority 2000, dated 2005)

How the values were obtained:
Type in all cases: in vivo
[1] = test system: two-spotted spider mite (Tetranychus urticae); assay: Insecticidal test for two-spotted spider mite, ovicide method on cotton leaf discs; details: Tetranychus urticae, foliar, 144 h, hatched larvae after 6 days, read-out: SM: activity against two-spotted spider mite (% Control rating)
Experimental: Insecticidal Test for Two-Spotted Spider Mite (Tetranychus urticae) Ovicide Method: Ten adult female two-spotted spider mites were placed on eight 2.2 cm leaf discs of cotton leaf, allowed to oviposit over 24 hours, and thereafter removed. […] Discs were placed on an agar substrate and held at 24° C. and 90% RH for 6 days.

[2] = test system: beet armyworm (Spodoptera exigua); assay: Insecticidal test for beet armyworm, treated lepidopteran diet; details: Spodoptera exigua, 120 h; 400 ppm, treated diet surface, second-instar larvae, 5 days; read-out: BAW: activity at 400 ppm against beet armyworm (% Control rating)
Experimental: (§1) Insecticidal Test for Tobacco Budworm (Heliothis virescens), Beet Armyworm (Spodoptera exigua), and Cabbage Looper (Trichoplusia ni).
(§2) To prepare the test solution, the test compound was formulated at 400 ppm in 7.5 mL of 2 acetone:1 tap water. 250 μL of the test solution was pipetted upon the surface of 8 mL of lepidopteran diet (modified Shorey) contained in each of five one-ounce plastic cups (one cup=1 replication). A second-instar beet armyworm was placed upon the treated diet in each cup once the solvent had air-dried. The solutions remaining after completing applications to the one-ounce cups were then used as leaf-dip solutions for 3.5 cm leaf discs cut from cabbage leaves and cotton cotyledons. Five discs of each type of plant were dipped until thoroughly coated into each rate of each compound (=5 replications of each treatment). After air-drying, the treated leaf discs were placed individually into one-ounce plastic cups. Each dried, treated cotton cotyledon disc was infested with a 2nd instar tobacco budworm larva, and each cabbage leaf disc was infested with a 2nd instar cabbage looper larva. Cups containing the treated substrates and larvae were capped and then held in a growth chamber at 25° C., 50-55% RH, and 14 hr light: 10 hr dark for 5 days.

[3] = test system: sweetpotato whitefly (Bemisia tabacia); assay: Insecticidal test for sweetpotato whitefly, spray on cotton plants; details: 312 h, 200 ppm spray, large nymphs counted after 13 days, read-out: WF: activity at 200 ppm against whitefly (% Control rating)
Experimental: Insecticidal Test for Sweetpotato Whitefly (Bemisia tabacia)
Four mg of each test compound was dissolved by adding 4 mL of a 90:10 acetone:ethanol solvent mixture to the vial containing the sample compound. This solution was added to 16 mL of water containing 0.05% Tween 20 surfactant to produce 20 mL of a 200 ppm spray solution.
Five-week-old cotton plants reared in a greenhouse were stripped of all foliage except for the two uppermost true leaves that were greater than 5 cm in diameter.
These plants were then placed into a laboratory colony of whiteflies for two days for oviposition by the colony females. All whiteflies were then removed from the test plants with pressurized air. The spray solution was then applied to the test plants with a hand-held syringe fitted with hollow cone nozzle. One mL of spray solution was applied to each leaf top and bottom for a total of 4 mL per plant. Four replications of each test compound utilized a total of 16 mL spray solution. Plants were air dried and then placed in a holding chamber (28° C. and 60% RH) for 13 days. Compound efficacy was evaluated by counting, under an illuminated magnifying glass, the number of large nymphs (3rd-4th instar) per leaf.
Percent control based on reduction of large nymphs of a test compound compared to solution-only (no test compound) sprayed plants is reported in Tables 1-4.

[4] = test system: cotton aphid (Aphis gossypii); assay: Insecticidal test for cotton aphid, spray on infested squash cotyledons; details: Aphis gossypii, 72 h; 50 ppm spray, squash cotyledons, all life stages, 3 days; read-out: CA: activity at 50 ppm against cotton aphid (% Control rating)
Experimental: Insecticidal Test for Cotton Aphid (Aphis gossypii)
To prepare spray solutions, 1 mg of each test compound was dissolved into 1 mL of a 90:10 acetone:ethanol solvent. This 1 mL of chemical solution was added to 19 mL of water containing 0.05% Tween 20 surfactant to produce a 50 ppm spray solution.
Squash cotyledons were infested with cotton aphid (all life stages)16-20 hours prior to application of spray solution. The solution was sprayed on both sides of each infested squash cotyledon (0.5 mL×2 each side) with a sweeping action until runoff. The plants were allowed to air dry and held for 3 days in a controlled room at 26° C. and 40% RH after which time the test was graded. Grading was by actual count using a dissecting microscope and comparison of test counts to the untreated check. Results are given in Tables 1-4 as percent control based on population reduction versus the untreated.

[5] = test system: cabbage looper (Trichoplusia ni); assay: Insecticidal test for cabbage looper, treated cabbage leaf disc; details: Trichoplusia ni, foliar, 120 h; 400 ppm, leaf-dip cabbage leaf disc, 2nd instar larvae, 5 days; read-out: CL: activity at 400 ppm against cabbage looper (% Control rating)
Experimental: as §1, §2

| SMILES | pest or weed control [1] [%] | pest or weed control at 400 ppm [2] [%] | pest or weed control at 200 ppm [3] [%] | pest or weed control at 50 ppm [4] [%] | pest or weed control at 400 ppm [5] [%] |
| --- | --- | --- | --- | --- | --- |
| Fc1ccc(-c2ccc(C3COC(c4c(Cl)cncc4Cl)=N3)cc2)cc1 (centres unmarked) [Compound 21] | 90 to 100 | 80 to 89 | < 50 | 90 to 100 | – |
| FC(F)(F)c1ccccc1-c1ccc(C2COC(c3c(Cl)cncc3Cl)=N2)cc1 (centres unmarked) [Compound 22] | – | – | – | 70 to 79 | – |
| Fc1ccccc1-c1ccc(C2COC(c3c(Cl)cncc3Cl)=N2)cc1 (centres unmarked) [Compound 23] | 90 to 100 | 60 to 69 | – | 90 to 100 | 90 to 100 |
| FC(F)(F)c1cc(-c2ccc(C3COC(c4c(Cl)cncc4Cl)=N3)cc2)cc(C(F)(F)F)c1 (centres unmarked) [Compound 24] | – | 90 to 100 | < 50 | < 50 | – |
| Cc1ccccc1-c1ccc(C2COC(c3c(Cl)cncc3Cl)=N2)cc1 (centres unmarked) [Compound 25] | – | 90 to 100 | – | 80 to 89 | < 50 |
| Cc1ccc(-c2ccc(C3COC(c4c(Cl)cncc4Cl)=N3)cc2)cc1F (centres unmarked) [Compound 26] | – | 60 to 69 | – | 60 to 69 | 60 to 69 |
| Clc1cncc(Cl)c1C1=NC(c2ccc(-c3ccccc3)cc2)CO1 (centres unmarked) [Compound 28] | 90 to 100 | 80 to 89 | – | < 50 | – |
| Cc1ccc(-c2ccc(C3COC(c4c(Cl)cncc4Cl)=N3)cc2)c(F)c1 (centres unmarked) [Compound 33] | – | 80 to 89 | – | < 50 | – |
| Fc1ccc(C(F)(F)F)cc1-c1ccc(C2COC(c3c(Cl)cncc3Cl)=N2)cc1 (centres unmarked) [Compound 34] | – | 60 to 69 | – | 80 to 89 | 90 to 100 |
| CSc1ccc(-c2ccc(C3COC(c4c(Cl)cncc4Cl)=N3)cc2)cc1 (centres unmarked) [Compound 35] | – | 90 to 100 | – | < 50 | 90 to 100 |
| FCSc1ccc(-c2ccc(C3COC(c4c(Cl)cncc4Cl)=N3)cc2)cc1 (centres unmarked) [Compound 37] | < 50 | – | – | 90 to 100 | 60 to 69 |
| Fc1cncc(F)c1C1=NC(c2ccc(I)cc2)CO1 (centres unmarked) [Compound 38, 2-(3,5-difluoro-4-pyridinyl)-4-(4-iodophenyl)oxazoline] | 90 to 100 | 70 to 79 | 90 to 100 | < 50 | – |
| Fc1cncc(F)c1C1=NC(c2ccc(-c3ccc(OC(F)(F)F)cc3)cc2)CO1 (centres unmarked) [Compound 40] | 90 to 100 | 90 to 100 | – | < 50 | 90 to 100 |
| Cc1cc(Br)ccc1C1COC(c2c(Cl)cncc2Cl)=N1 (centres unmarked) [Compound 41, 4-[4-(4-bromo-2-methylphenyl)-4,5-dihydro-1,3-oxazol-2-yl]-3,5-dichloropyridine] | < 50 | – | < 50 | 90 to 100 | – |
| CCOc1ccc(-c2ccc(C3COC(c4c(Cl)cncc4Cl)=N3)c(C)c2)cc1 (centres unmarked) [Compound 42] | 90 to 100 | 90 to 100 | – | 80 to 89 | 80 to 89 |
| C[C@H]1OC(c2c(Cl)cncc2Cl)=N[C@H]1c1ccc(I)cc1 [Compound 45, 4-[4-(4′-Iodophenyl)-5-methyl-4,5-dihydro-oxazol-2-yl]-3,5-dichloropyridines] | – | – | – | 90 to 100 | – |
| C[C@@H]1OC(c2c(Cl)cncc2Cl)=N[C@H]1c1ccc(I)cc1 [Compound 46, 4-[4-(4′-Iodophenyl)-5-methyl-4,5-dihydro-oxazol-2-yl]-3,5-dichloropyridines] | < 50 | – | – | < 50 | – |
